Target: T1, human Flt-3 (Homo sapiens, UniProt P36888)
T1 construct: expresses the amino acid region amino acids 563-993 of the intra-cytoplasmic kinase domains of human Flt-3; made in house; host or cells: Sf9 insect cells (baculovirus, pFbacG01 donor vector)
T1 sequence (P36888 563-993): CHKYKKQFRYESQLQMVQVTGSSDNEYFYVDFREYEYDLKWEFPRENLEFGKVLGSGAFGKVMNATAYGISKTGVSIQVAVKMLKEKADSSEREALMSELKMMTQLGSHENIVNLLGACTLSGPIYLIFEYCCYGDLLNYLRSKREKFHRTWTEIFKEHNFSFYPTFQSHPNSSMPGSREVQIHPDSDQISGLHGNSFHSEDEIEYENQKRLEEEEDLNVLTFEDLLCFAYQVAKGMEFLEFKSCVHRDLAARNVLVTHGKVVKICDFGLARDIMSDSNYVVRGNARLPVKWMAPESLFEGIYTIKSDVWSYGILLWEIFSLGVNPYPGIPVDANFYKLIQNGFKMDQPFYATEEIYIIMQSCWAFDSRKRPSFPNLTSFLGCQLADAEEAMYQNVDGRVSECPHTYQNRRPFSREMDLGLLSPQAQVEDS
Test: Tyrosine protein kinase assay with purified GST-Flt-3 (33P incorporation)
Type: biochemical
Details: at a 1.0 micromolar concentration
Protocol: ATP into appropriate substrates.
The coding sequences for the cytoplasmic domain of Flt-3 was amplified by PCR from human c-DNA libraries (Clontech). The amplified DNA fragments and the pFbacG01 vector were made compatible for ligation by digestion with BamH1 and Hind III. […] The production of the viruses, the expression of proteins in Sf9 cells and the purification of the GST-fused proteins were performed as following:
(Generation of Bac- to Bac GST-fusion vectors); pFbacG01, pFbacGST2T and pFbacGSTx3 Bac-to-Bac™ donor vectors were generated from pAcG1, pAcG2T and pAcG3X respectively, which facilitate the expression of GST-fusion proteins with the possibility of cleavage with thrombin (pFbacGT2) or factor Xa (pFbacGSTx3) while pFbacG01 expresses no proteolytic cleavage site. These were generated in house by isolation of the DNA fragment containing the gene for GST with the C-terminal protease and restriction sites by restriction enzyme digestion of the relevant PharMingen baculovirus donor vector with EcoRV and EcoRI. This EcoRV/EcoRI fragment was ligated into the pFastBac1 vector which had been restriction digested with BamHI, blunt-ended by Klenow reaction and subsequently digested with EcoRI to generate a blunt-ended/EcoRI vector. (Production of virus); Transfer vectors containing the kinase domains were transfected into the DH10Bac cell line (GIBCO) and plated on selective agar plates. Colonies without insertion of the fusion sequence into the viral genome (carried by the bacteria) are blue. Single white colonies were picked and viral DNA (bacmid) isolated from the bacteria by standard plasmid purification procedures. Sf9 cells or Sf21 cells were then transfected in 25 cm^2 flasks with the viral DNA using Cellfectin reagent. (Determination of small scale protein expression in Sf9 cells); Virus containing media was collected from the transfected cell culture and used for infection to increase its titer. Virus containing media obtained after two rounds of infection was used for large-scale protein expression. For large-scale protein expression 100 cm^2 round tissue culture plates were seeded with 5×10^7 cells/plate and infected with 1 mL of virus-containing media (approx. 5 MOIs). After 3 days the cells were scraped off the plate and centrifuged at 500 rpm for 5 min. Cell pellets from 10-20, 100 cm^2 plates, were resuspended in 50 mL of ice-cold lysis buffer (25 mMTris-HCl, pH7.5, 2 mMEDTA, 1% NP-40, 1 mM DTT, 1 mMP MSF). The cells were stirred on ice for 15 min and then centrifuged at 5000 rpms for 20 min.
ATP 0.1 μCi). […] ATP into appropriate substrates. […] Subsequently, 40 μL of the reaction mixture were transferred onto Immobilon-PVDF membrane (Millipore, Bedford, Mass., USA) previously soaked for 5 min with methanol, rinsed with water, then soaked for 5 min with 0.5% H3PO4 and mounted on vacuum manifold with disconnected vacuum source. After spotting all samples, vacuum was connected and each well rinsed with 200 μL 0.5% H3PO4. Membranes were removed and washed 4× on a shaker with 1.0% H3PO4, once with ethanol. Membranes were counted after drying at ambient temperature, mounting in Packard TopCount 96-well frame, and addition of 10 μL/well of Microscint™ (Packard). […] One unit of protein kinase activity is defined as 1 nmole of ^33P ATP transferred from [γ^33P] ATP to the substrate protein per minute per mg of protein at 37° C.

Row | Flt3 Inhibition (percent inhibition of Flt3 kinase activity) | Compound
1 | 22% | (9a,10b,11b,13a)-11-[[N-Acetyl-4-O-acetyl-6-O-(1-oxooctadecyl)-1-O-(phenylmethyl)-a-muramoyl]methylamino]-2,3,10,11,12,13-hexahydro-10-methoxy-9-methyl-9,13-epoxy-1H,9H-diindolo[1,2,3-gh:3′,2′,1′-lm]pyrrolo[3,4-j][1,7]benzodiazonin-1-one [149622-62-8]
2 | 72% | (9a,10b,11b,13a)-11-[[N-Acetyl-1-O-(phenylmethyl)-a-muramoyl]methylamino]-2,3,10,11,12,13-hexahydro-10-methoxy-9-methyl-9,13-epoxy-1H,9H-diindolo[1,2,3-gh:3′,2′,1′-lm]pyrrolo[3,4-j][1,7]benzodiazonin-1-one [149622-39-9]
3 | 97% | (9a,10b,11b,13a)-11-[(N-Acetyl-6-amino-1,6-dideoxymuramoyl)methylamino]-2,3,10,11,12,13-hexahydro-10-methoxy-9-methyl-9,13-epoxy-1H,9H-diindolo[1,2,3-gh:3′,2′,1′-lm]pyrrolo[3,4-j][1,7]benzodiazonin-1-one, monomethanesulfonate [150654-80-1]
4 | 41% | CO[C@@H]1[C@H](N(C)C(=O)c2ccccc2)C[C@H]2O[C@]1(C)n1c3ccccc3c3c4c(c5c6ccccc6n2c5c31)C(=O)NC4O (stereo partly shown) [179237-49-1, N-(2,3,10,11,12,13-Hexahydro-3-hydroxy-10-methoxy-9-methyl-1-oxo-9,13-epoxy-1H,9H-diindolo[1,2,3-gh:3′,2′,1′-lm]pyrrolo[3,4-j][1,7]benzodiazonin-11-yl)-N-methyl-benzamide]
5 | 85% | (9a,10b,11b,13a)-11-[(N-Acetyl-a-normuramoyl)methylamino]-2,3,10,11,12,13-hexahydro-10-methoxy-9-methyl-9,13-epoxy-1H,9H-diindolo[1,2,3-gh:3′,2′,1′-lm]pyrrolo[3,4-j][1,7]benzodiazonin-1-one [149622-55-9]
6 | 89% | N-[(9S,10R,11R,13R)-2,3,10,11,12,13-Hexahydro-10-methoxy-9-methyl-1-oxo-9,13-epoxy-1H,9H-diindolo[1,2,3-gh:3′,2′,1′-lm]pyrrolo[3,4-j][1,7]benzodiazonin-11-yl]-2-hydroxy-N-methyl-Benzamide [178955-60-7]

The next lines start with the compound.

Row | Compound | Flt3 Inhibition (percent inhibition of Flt3 kinase activity)
7 | COC1C(N(C)C(=O)CN)CC2OC1(C)n1c3ccccc3c3c4c(c5c6ccccc6n2c5c31)C(=O)NC4.Cl (stereo not drawn) [124151-42-4, [9S-(9a,10b,11b,13a)]-2-Amino-N-(2,3,10,11,12,13-hexahydro-10-methoxy-9-methyl-1-oxo-9,13-epoxy-1H,9H-diindolo[1,2,3-gh:3′,2′,1′-lm]pyrrolo[3,4-j][1,7]benzodiazonin-11-yl)-N-methyl-acetamide, monohydrochloride] | 97%
8 | (9a,10b,11b,13a)-N-(2,3,10,11,12,13-Hexahydro-10-methoxy-9-methyl-1-oxo-9,13-epoxy-1H,9H-diindolo[1,2,3-gh:3′,2′,1′-lm]pyrrolo[3,4-j][1,7]benzodiazonin-11-yl)-N-methyl-4-nitro-benzamide [120685-46-3] | 81%
9 | CO[C@@H]1[C@H](N(C)C(=O)C(C)(C)OC2CCOCC2)C[C@H]2O[C@]1(C)n1c3ccccc3c3c4c(c5c6ccccc6n2c5c31)C(=O)NC4 [160251-55-8, [9S-(9a,10b,11b,13a)]-N-(2,3,10,11,12,13-Hexahydro-10-methoxy-9-methyl-1-oxo-9,13-epoxy-1H,9H-diindolo[1,2,3-gh:3′,2′,1′-lm]pyrrolo[3,4-j][1,7]benzodiazonin-11-yl)-N,2-dimethyl-2-[(tetrahydro-2H-pyran-4-yl)oxy]-propanamide] | 85%
10 | CO[C@@H]1[C@H](N)C[C@H]2O[C@]1(C)n1c3ccccc3c3c4c(c5c6ccccc6n2c5c31)C(=O)NC4 [126221-77-0, (9S,10R,11R,13R)-11-Amino-2,3,10,11,12,13-hexahydro-10-methoxy-9-methyl-9,13-epoxy-1H,9H-diindolo[1,2,3-gh:3′,2′,1′-lm]pyrrolo[3,4-j][1,7]benzodiazonin-1-one] | 96%
11 | CO[C@@H]1/C(=N/O)C[C@H]2O[C@]1(C)n1c3ccccc3c3c4c(c5c6ccccc6n2c5c31)C(=O)NC4 [126221-76-9, (9S,10R,11Z,13R)-2,3,9,10,12,13-Hexahydro-10-methoxy-9-methyl-9,13-epoxy-1H,11H-diindolo[1,2,3-gh:3′,2′,1′-lm]pyrrolo[3,4-j][1,7]benzodiazonine-1,11-dione, 11-oxime] | 83%
12 | CNC(=S)N(C)C1CC2OC(C)(C1OC)n1c3ccccc3c3c4c(c5c6ccccc6n2c5c31)C(=O)NC4 (stereo not shown) [120685-13-4, (9a,10b,11b,13a)-N-(2,3,10,11,12,13-Hexahydro-10-methoxy-9-methyl-1-oxo-9,13-epoxy-1H,9H-diindolo[1,2,3-gh:3′,2′,1′-lm]pyrrolo[3,4-j][1,7]benzodiazonin-11-yl)-N,N′-dimethyl-thiourea] | 91%
13 | [9S-(9a,10b,11b,13a)]-[3-[(2,3,10,11,12,13-Hexahydro-10-methoxy-9-methyl-1-oxo-9,13-epoxy-1H,9H-diindolo[1,2,3-gh:3′,2′,1′-lm]pyrrolo[3,4-j][1,7]benzodiazonin-11-yl)methylamino]-3-oxopropyl]-carbamic acid, 1,1-dimethylethyl ester [124078-44-0] | 87%
14 | COC1C(N(C)C(=O)c2cccc(F)c2)CC2OC1(C)n1c3ccccc3c3c4c(c5c6ccccc6n2c5c31)C(=O)NC4 (stereo not shown) [120685-16-7, (9a,10b,11b,13a)-3-Fluoro-N-(2,3,10,11,12,13-hexahydro-10-methoxy-9-methyl-1-oxo-9,13-epoxy-1H,9H-diindolo[1,2,3-gh:3′,2′,1′-lm]pyrrolo[3,4-j][1,7]benzodiazonin-11-yl)-N-methyl-benzamide] | 60%
15 | [9S-(9a,10b,11b,13a)]-(2,3,10,11,12,13-Hexahydro-10-methoxy-9-methyl-1,3-dioxo-9,13-epoxy-1H,9H-diindolo[1,2,3-gh:3′,2′,1′-lm]pyrrolo[3,4-j][1,7]benzodiazonin-11-yl)methyl-carbamic acid, 1,1-dimethylethyl ester [154589-93-2] | 67%
16 | CO[C@@H]1[C@H](N(C)C(=O)CCC(=O)[O-])C[C@H]2O[C@]1(C)n1c3ccccc3c3c4c(c5c6ccccc6n2c5c31)C(=O)NC4.[Na+] [120685-10-1, [9S-(9a,10b,11b,13a)]-4-[(2,3,10,11,12,13-Hexahydro-10-methoxy-9-methyl-1-oxo-9,13-epoxy-1H,9H-diindolo[1,2,3-gh:3′,2′,1′-lm]pyrrolo[3,4-j][1,7]benzodiazonin-11-yl)methylamino]-4-oxo-butanoic acid, sodium salt] | 98%

— patent publication US8222244B2, “Staurosporine derivatives as inhibitors of FLT3 receptor tyrosine kinase activity” (Novartis AG, priority 2001, dated 2012)
